The subject of this test is Porphyridium aerugineum. The experiment in a line: Compound at a conc of 2 umol was tested for antialgal activity against Porphyridium aerugineum in filter paper-petri dish bioassay. In kind it is functional.
Turning to `COc1cc2ccc(-c3ccccc3)c3c2c(c1OC)CCC3OC` (stereo not drawn), the Inhibition zone was 25 mm.
`COc1ccc2c(-c3ccccc3)cc(OC)c3c2c1CCC3OC` (stereo not drawn) showed an Inhibition zone of 25 mm.
Then `COc1ccc(-c2cc(OC)c3c4c(c(OC)ccc24)CCC3OC)cc1` (stereo not drawn), with 25 mm.
